According to US12268666B2, “Spray-dried dispersions, formulations, and polymorphs of (S)-5-amino-3-(4-((5-fluoro-2-methoxybenzamido)methyl)phenyl)-1-(1,1,1-trifluoropropan-2-yl)-1H-pyrazole-4-carboxamide” (Loxo Oncology, Inc., priority 2018, dated 2025):
Entries after “also recorded” stand apart in the source; their conditions may differ. Read-outs that look alike come from different tables or passages of the source.

What was measured:
BTK E41K = biological target: T1, BTK E41K (Homo sapiens, UniProt Q06187, E41K); test: BTK activity assay, [33P]-ATP incorporation into poly-EY; assay type: biochemical; conditions: ATP at Km concentration
T1 construct: against full-length wild type (WT) and mutant human BTK enzymes
T1 sequence (Q06187 whole entry E41K): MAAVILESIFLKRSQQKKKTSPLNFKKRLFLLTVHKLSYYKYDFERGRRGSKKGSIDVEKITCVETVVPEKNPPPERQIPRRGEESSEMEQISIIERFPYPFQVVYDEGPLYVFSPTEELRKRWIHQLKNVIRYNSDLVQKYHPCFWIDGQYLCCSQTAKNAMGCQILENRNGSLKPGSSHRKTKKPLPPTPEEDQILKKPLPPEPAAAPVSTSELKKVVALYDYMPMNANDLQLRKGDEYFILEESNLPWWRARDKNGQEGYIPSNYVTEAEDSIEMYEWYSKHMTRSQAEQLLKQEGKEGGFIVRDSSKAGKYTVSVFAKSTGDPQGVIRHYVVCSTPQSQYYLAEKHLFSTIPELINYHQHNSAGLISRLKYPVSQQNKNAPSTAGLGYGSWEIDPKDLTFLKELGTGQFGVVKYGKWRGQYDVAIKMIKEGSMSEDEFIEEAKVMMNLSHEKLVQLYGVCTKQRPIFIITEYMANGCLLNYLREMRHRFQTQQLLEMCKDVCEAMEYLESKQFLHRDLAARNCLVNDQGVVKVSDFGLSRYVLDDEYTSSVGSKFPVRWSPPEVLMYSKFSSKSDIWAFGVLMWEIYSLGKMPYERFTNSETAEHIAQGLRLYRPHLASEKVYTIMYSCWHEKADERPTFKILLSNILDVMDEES
Experimental: (§1) The reaction mixtures each contained polyhistidine-tagged BTK enzyme, poly-EY and BTK inhibitor at the appropriate concentrations. The reaction mixtures are incubated for 20 minutes at room temperature after which [[γ-^33P]-ATP (radiochemical concentration 10 μCi/μL) at 10 μM or the ATP Km concentration for each enzyme is added. After 2 hours of incubation at room temperature, the radiolabeled peptide substrate is captured, and incorporated radioactivity is quantified.

BTK P190K = biological target: T2, BTK P190K (Homo sapiens, UniProt Q06187, P190K); test: as above; assay type: biochemical; conditions: ATP at Km concentration
T2 construct: against full-length wild type (WT) and mutant human BTK enzymes
T2 sequence (Q06187 whole entry P190K): as the sequence (Q06187 whole entry E41K) above, with K41E, P190K counted along it
Experimental: as §1

BTK wild type = biological target: T3, BTK wild type (Homo sapiens, UniProt Q06187); test: Y223 autophosphorylation in HEK293 cells stably expressing BTK; assay type: cell-based; conditions: 2 hr treatment, signal normalized to total BTK
T3 construct: expressed in transfected cells; host or cells: HEK293
T3 sequence (Q06187 whole entry): as the sequence (Q06187 whole entry E41K) above, with K41E counted along it
Experimental: HEK293 cell lines stably expressing BTK wild type and the mutant form C481S are generated using standard transfection methods. For assessment of cellular inhibition potency, cells are grown in DMEM +10% Fetal Bovine Serum (FBS)+1 μg/ml puromycin (complete growth media) at 37° C. in a CO2 incubator. Cells are harvested according to standard protocols using TRYPLE™ (Gibco #12604-013), counted, resuspended in complete growth media, and added to 6 well assay plates at 4×10 ^5 cell/well in 2 mL. Plates are incubated overnight at 37° C. with 5% CO2. […] All samples are tested in triplicate. Following compound incubation, the growth medium is discarded, cells are washed with DPBS (1×) (Gibco #14190-144) and lysed in 1 mL of […]™ M (Sigma #C2978) containing 1× Halt phosphatase and protease inhibitor cocktails (Pierce #78442). Plates are placed on ice for 1 hr with gentle agitation and stored at −80° C. overnight. The next day, cell lysates are placed in 1.5 mL tubes and cleared by centrifugation at 16,000×g for 10 min at 4° C. Supernatants are quantified by BCA (Pierce #23225) and stored at −80° C. Samples are analyzed by Simple Western (Protein Simple) with anti-phospho-BTK (Y223) (Cell Signaling Technologies (CST) #5082) and anti-BTK (CST #8547) (FIGS. 10A and 10B). β-actin is used as a loading control and detected by regular Western blot with an anti-3-actin antibody (CST #4970).

[1] = Aqueous solubility at different pH values; assay type: physicochemical
[2] = Solubility screening in lipid vehicles; assay type: physicochemical
Experimental: The solubility of the compound of Formula I in lipid vehicles is also examined. The compound of Formula I Form A is added into a clear, 20 mL glass vials followed by the corresponding excipients, e.g., MIGLYOL® 812 (saturated coconut and palmkernel oil-derived caprylic and capric fatty acids and glycerin, e.g., C8 and C10 triglycerides), CAPMUL® MCM EP (glyceryl monocaprylocaprate type I (EP)), PECEOL™ (glycerol monooleates (type 40) EP, glyceryl monooleate (type 40) NF), LABRAFIL® M2125CS (linoleoyl polyoxyl-6 glycerides), LAUROGLYCOL™ FCC (propylene glycol monolaurate (type I)), Span® 80 (sorbitane monooleate), PHOSAL® 53 MCT (lecithin in caprylic/capric triglycerides, alcohol, glyceryl stearate, oleic acid, and ascorbyl palmitate), or capmul PG-8 (propylene glycol monocaprylate). The samples are then homogenized with a handheld homogenizer for 10 minutes until the compound of Formula I is visibly dissolved. […] A set of matching control formulations are also prepared.

BTK C481S = BTK C481S (Homo sapiens, UniProt Q06187, C481S); test: BTK activity assay, [33P]-ATP incorporation into poly-EY; assay type: biochemical; set-up: against full-length wild type (WT) and mutant human BTK enzymes
Sequence of BTK C481S (Q06187 whole entry C481S): as the sequence (Q06187 whole entry E41K) above, with K41E, C481S counted along it
Experimental: The activity of the compound of Formula I against full-length wild type (WT) and mutant human BTK enzymes is determined by monitoring the incorporation [^33P]-PO4 from [γ-^33P]-ATP into poly-glutamic acid-tyrosine (poly-EY) peptide substrate. The reaction mixtures each contained polyhistidine-tagged BTK enzyme, poly-EY and BTK inhibitor at the appropriate concentrations. The reaction mixtures are incubated for 20 minutes at room temperature after which [[γ-^33P]-ATP (radiochemical concentration 10 μCi/μL) at 10 μM or the ATP Km concentration for each enzyme is added. After 2 hours of incubation at room temperature, the radiolabeled peptide substrate is captured, and incorporated radioactivity is quantified.
Each assay is performed at an ATP concentration close to the Km for each enzyme. […] After co-incubation with a serial dilution of the compound of Formula I, the quantity of ^33P incorporated into a peptide substrate is measured and the data analyzed using standard curve fitting methods.

`COc1ccc(F)cc1C(=O)NCc1ccc(-c2nn([C@@H](C)C(F)(F)F)c(N)c2C(N)=O)cc1` [compound of Formula I, (S)-5-amino-3-(4-((5-fluoro-2-methoxybenzamido)methyl)phenyl)-1-(1,1,1-trifluoropropan-2-yl)-1H-pyrazole-4-carboxamide] gave an IC50 (BTK E41K) of 7.85 nM, an IC50 (BTK P190K) of 2.14 nM and an IC50 (BTK wild type) of 8.6 ± 0.3 nM. For the same compound, the solubility ([1]; aqueous solution, aqueous buffer, between pH 1 to pH 10) was 0.014 to 0.017 mg/mL, the solubility ([1]; aqueous solution, aqueous buffer, pH 3, actual media pH 3.03) was 0.014 mg/mL and the solubility ([1]; aqueous solution, aqueous buffer, pH 4, actual media pH 4.04) was 0.014 mg/mL. For the same compound, the solubility ([1]; aqueous solution, aqueous buffer, pH 6, actual media pH 6.04) was 0.014 mg/mL, the solubility ([1]; aqueous solution, aqueous buffer, pH 8, actual media pH 8.02) was 0.014 mg/mL and the solubility ([1]; aqueous solution, aqueous buffer, pH 10, actual media pH 9.98) was 0.014 mg/mL. For the same compound, the solubility ([1]; aqueous solution, simulated gastric fluid, pH 1.5, actual media pH 1.49) was 0.015 mg/mL, the solubility ([1]; aqueous solution, simulated gastric fluid, pH 2, actual media pH 2.06) was 0.015 mg/mL and the solubility ([1]; simulated gastric fluid, (0.1 N HCl) pH 1, actual media pH 1.09) was 0.017 mg/mL. The “HPLC Solubility” value ([2]; CAPMUL ® MCM EP, 40 °C) was 33.3 mg API per g mixture, the “HPLC Solubility” value ([2]; Capmul PG-8, 25 °C) was 30.3 mg API per g mixture and the “HPLC Solubility” value ([2]; Glycerine, 25 °C) was 0.5 mg API per g mixture. The “HPLC Solubility” value ([2]; KOLLIPHOR ® EL, 25 °C) was 46.2 mg API per g mixture, the “HPLC Solubility” value ([2]; LABRAFIL ® M2125CS, 25 °C) was 3.2 mg API per g mixture and the “HPLC Solubility” value ([2]; LABRASOL ® ALF, 25 °C) was 104.1 mg API per g mixture. For the same compound, the “HPLC Solubility” value ([2]; LAUROGLYCOL ™ FCC, 25 °C) was 5.1 mg API per g mixture, the “HPLC Solubility” value ([2]; Long chain triglycerides/long chain lipid digestion products, 25 °C) was 0.02 mg API per g mixture and the “HPLC Solubility” value ([2]; MIGLYOL ® 812, 25 °C) was 0.62 mg API per g mixture. For the same compound, the “HPLC Solubility” value ([2]; Medium chain triglycerides/medium chain lipid digestion products, 25 °C) was 0.02 mg API per g mixture, the “HPLC Solubility” value ([2]; Oleic acid, 25 °C) was 1.2 mg API per g mixture and the “HPLC Solubility” value ([2]; PECEOL ™, 40 °C) was 6.6 mg API per g mixture. For the same compound, the “HPLC Solubility” value ([2]; PEG-400 (Macrogol 400), 25 °C) was 168.9 mg API per g mixture, the “HPLC Solubility” value ([2]; PHOSAL ® 53 MCT, 25 °C) was 11.3 mg API per g mixture and the “HPLC Solubility” value ([2]; Polysorbate 80/Tween-80, 25 °C) was 43.6 mg API per g mixture. The “HPLC Solubility” value ([2]; Propylene glycol, 25 °C) was 29.4 mg API per g mixture, the “HPLC Solubility” value ([2]; SPAN ® 80, 25 °C) was 6.2 mg API per g mixture and the “HPLC Solubility” value ([2]; Sesame oil, 25 °C) was 0.07 mg API per g mixture. The “HPLC Solubility” value ([2]; Vitamin E-TPGS NF, 40 °C) was 43.1 mg API per g mixture, the “excipients in which solubility is best” value ([2]; excipient screen for lipid-based formulations) was “best in PEG 400, LABRASOL® ALF (e.g., caprylocaproyl polyoxyl-8 glycerides), KOLLIPHOR® EL (e.g., polyoxyl castor oil), Tween 80, and Vitamin E TPGS; also recorded: most soluble in LABRASOL® ALF and PEG-400” and the IC50 (BTK C481S; 10 μM ATP, read-out: IC50) was 0.29 nM. For the same compound, the IC50 (BTK C481S; ATP at Km concentration, read-out: IC50 value) was 1.42 nM.
